{"source": "patent US11518981B2", "about": "“Methods of enhancing engraftment activity of hematopoietic stem cells” (CHILDREN'S HOSPITAL MEDICAL CENTER, priority 2017, dated 2022)", "key": {"[1]": {"system": "CD34^+38^−90^+45RA^−49f^+ HSCs", "assay": "phenotypic HSC population by flow cytometry", "type": "cell-based, human", "text": "PE-Cyanine 7 or APC-EFLUOR® 780, APC- or PE-conjugated antibodies directed to human CD34 (BD Biosciences 560710 or 555824), CD38 (eBiosciences, San Diego, Calif. 47-0389-42), CD90 (BioLegend 328120), CD45RA (eBiosciences 17-0458-42), CD49f (BD Biosciences 555736), CD45 (BD 55485 or Biolegend 304026), CD33 (eBiosciences 25-0338-42), CD19 (BD Biosciences 557791), or CD3 (BD Biosciences 555340). Cells (˜5×10^5−1×10^6) were used to label with antibodies as per manufacturer instructions with the appropriate isotype controls. For phospho-flow, primary antibodies phospho-p38 (Thr180/Tyr182; 4092S), phospho-p44/42 MAPK (ERK ½) (Thr202/Tyr204; 4094S), and phospho-JNK (Thr183-Tyr185 PE conjugate; 5755S) (all from Cell Signaling) were used for staining overnight followed by wash and secondary antibody stain including Goat anti-Rabbit IgG (H+L) or Goat anti-Rabbit IgG (H+L) or Pacific Blue (P-10994) antibody. Apoptosis assay was performed using PE Annexin V Apoptosis Detection Kit (BD Biosciences 559763) according to the manufacturer's instructions. Total ROS and mitochondrial specific ROS were detected using 10 μM CM-H2DCFDA (ThermoFisher Scientific C6827) and 5 μM MITOSOX™ Red (Red Mitochondrial Superoxide Indicator) (ThermoFisher Scientific M36008) respectively, following manufacturer's instructions."}, "[2]": {"system": "human MPB derived CD34^+ cells", "assay": "long term repopulating potential (LTRP) in secondary transplanted (2 T) NSG mice", "type": "in vivo", "settings": "CD34^+ cells cultured 36-42 h and 72-96 h; 6 weeks post 2 T", "text": "NOD.Cg-Prkdcscid Il2rgtm1Wjl/SzJ (NSG) mice were purchased from The Jackson Laboratory (Bar Harbor, Me.). All animals were bred and maintained in a specific pathogen-free environment and all experiments were approved by the Institutional Animal Care and Use (IACUC) Committee. Male and female NSG mice aged 8 to 14 weeks old were fed doxycycline chow (TestDiet; Modified Prolab RMH-1500 with 0.0625% doxycycline) a week prior to, during and for 2 weeks post irradiation. Human engraftment was analyzed in bone marrow (BM), via BM aspirates performed at 6 and 12 weeks from left and right femurs. After sacrifice at 24 weeks, marrow from all of the primary mice (1 T) was harvested. Peripheral blood analysis was also performed in some experiments. Secondary transplants (2 T) were performed after mouse CD45^+ cells were depleted from BM harvested from each 1 T mouse separately, using Biotin Rat Anti-Mouse CD45 (BD Biosciences 553078) and Streptavidin Particles Plus-DM (BD Biosciences 557812) and injected into one irradiated (280 cGy) secondary NSG mouse. For calculating competitive repopulating units (CRU) from limiting dilution transplantation, the L-CALC^TM software (Stem Cell Technologies) was used. All of the mice used for this study were randomly assigned to a treatment group. No animals were excluded from the analysis."}, "[3]": {"system": "CD34^+38^−90^+ HSCs", "assay": "ROS measurement (MITOSOX / CM-H2DCFDA) in HSCs", "type": "cell-based, human", "settings": "MITOSOX in CD34^+38^−90^+ cells", "method": "Freshly isolated CD34^+ cells were used, wherever possible, and especially for 0 h controls. In some experiments cryopreserved CD34^+ cells were thawed for 4 hrs in IMDM containing cytokines, then washed and used for experiments. CD34^+ cells were transduced in X-VIVO 10™ (Lonza) medium supplemented with 2% human serum albumin (Baxter), recombinant human Flt-3 ligand (Flt3-L; 200 ng/mL), stem cell factor (SCF; 300 ng/mL), thrombopoietin (TPO; 100 ng/mL) (all cytokines obtained from PeproTech), and penicillin-streptomycin (ThermoFisher Scientific) on non-tissue culture treated plates coated with retronectin (4 μg/cm2, CH-296, Takara Bio Inc.). […]\nPE-Cyanine 7 or APC-EFLUOR® 780, APC- or PE-conjugated antibodies directed to human CD34 (BD Biosciences 560710 or 555824), CD38 (eBiosciences, San Diego, Calif. 47-0389-42), CD90 (BioLegend 328120), CD45RA (eBiosciences 17-0458-42), CD49f (BD Biosciences 555736), CD45 (BD 55485 or Biolegend 304026), CD33 (eBiosciences 25-0338-42), CD19 (BD Biosciences 557791), or CD3 (BD Biosciences 555340). […] Total ROS and mitochondrial specific ROS were detected using 10 μM CM-H2DCFDA (ThermoFisher Scientific C6827) and 5 μM MITOSOX™ Red (Red Mitochondrial Superoxide Indicator) (ThermoFisher Scientific M36008) respectively, following manufacturer's instructions."}}, "data": [{"smiles": "Cc1ccc(-n2nc(C(C)(C)C)cc2NC(=O)Nc2ccc(OCCN3CCOCC3)c3ccccc23)cc1", "note": "[p38i, 1-[5-tert-butyl-2-(4-methylphenyl)pyrazol-3-yl]-3-[4-(2-morpholin-4-ylethoxy)naphthalen-1-yl]urea]", "values": [{"measurement": "increased phenotypic HSC population", "setting": "[1]; other than prolonged cultures", "value": "similar"}, {"measurement": "phenotypic HSCs", "setting": "[1]; prolonged cultures", "value": "higher"}, {"measurement": "LTRP in 2 T mice", "setting": "[2]", "value": "restored the LTRP in 2 T mice to levels seen with unmanipulated HSPCs"}, {"measurement": "ROS levels in the HSC compartment", "setting": "[3]", "value": "no difference"}]}]}
